US20110077212A1, “THERAPEUTIC USES OF SGLT2 INHIBITORS” (Theracos, Inc., priority 2009, published 2011)
Where “and” joins values, the source holds several entries; their conditions need not be identical. Identical values can stand only once. Counter-ions that a name gives are not always drawn.

Legend:
[1] = test system: SD Rats Fed a Pioglitazone (0.03%) Containing Diet; assay: Body weight of SD rats fed a pioglitazone-containing diet for 7 days; type: in vivo, Sprague-Dawley rats; details: for Body Weight (g) DAY 1: day 1 (first day of pioglitazone 0.03% diet and compound in drinking water), amiloride 1.5 mg/kg; for Body Weight (g) DAY 1 / Body Weight (%) DELTA (percent weight gain) / Body Weight (g) DELTA (weight gain) / Body Weight (g) DAY 7 / Body Weight (%) DAY 7: TEST COMPOUND 4.5 mg/kg; for Body Weight (g) DAY 1 / Body Weight (%) DELTA (percent weight gain) / Body Weight (g) DELTA (weight gain) / Body Weight (g) DAY 7 / Body Weight (%) DAY 1 / Body Weight (%) DAY 7: mean ± SEM; for Body Weight (%) DELTA (percent weight gain): day 7 minus day 1, percent of day 1 value; for Body Weight (%) DELTA (percent weight gain) / Body Weight (g) DELTA (weight gain) / Body Weight (%) DAY 1 / Body Weight (%) DAY 7: pioglitazone 0.03% diet; for Body Weight (%) DELTA (percent weight gain) / Body Weight (g) DELTA (weight gain) / Body Weight (g) DAY 7 / Body Weight (%) DAY 7: amiloride 1.5 mg/kg in drinking water; for Body Weight (g) DELTA (weight gain): day 7 minus day 1; for Body Weight (g) DAY 7: day 7 of pioglitazone 0.03% diet; for Body Weight (%) DAY 1 / Body Weight (%) DAY 7: percent of day 1 value
Excerpt: (§1) […] On day −5 rats and water bottles were weighed and placed in the cage with ad lib access to standard rodent chow. Body weights were used to assign rats to counter-balanced groups. Daily water consumption was estimated after weighing bottles again on day −1 and used to determine the appropriate drug concentrations to achieve the desired daily doses. On day 1, rats were weighed and then received an ad mixed diet (ad lib) containing 0.03% pioglitazone in place of standard chow. Food weight was recorded in order to track consumption over the course of the experiment. At this time, rats were also given drinking water containing compound at the appropriate concentration. Full bottles were pre-weighed and recorded in order to track consumption over the course of the experiment. On day 7, rats, food and water bottles were again weighed and recorded, hematocrits were determined using blood collected by a tail nick. All data are presented as means +/−1 SEM. Statistical analyses were performed using GraphPad Prism statistical software. The mean differences among the treatment groups for all variables were tested for statistical significance using 2-way repeated measures ANOVAs. Additionally, differences were calculated for each animal (day 7−day 1), and resultant means were tested for statistical significance using 1-way ANOVAs.

[2] = test system: SD Rats Fed a Pioglitazone (0.03%) Containing Diet; assay: Plasma volume (hematocrit) of SD rats fed a pioglitazone-containing diet for 7 days; type: in vivo, Sprague-Dawley rats; details: for Plasma expansion versus vehicle treated rats (in words): 7 days pioglitazone diet, compound in drinking water; for Plasma Volume % DAY 1: day 1 (first day of pioglitazone 0.03% diet and compound in drinking water), amiloride 1.5 mg/kg; for Plasma Volume % DAY 1 / Plasma Volume % DELTA / Plasma Volume % DAY 7: TEST COMPOUND 4.5 mg/kg, mean ± SEM; for Plasma Volume % DELTA: day 7 minus day 1, pioglitazone 0.03% diet; for Plasma Volume % DELTA / Plasma Volume % DAY 7: amiloride 1.5 mg/kg in drinking water; for Plasma Volume % DAY 7: day 7 of pioglitazone 0.03% diet
Excerpt: as §1, with “On day 1 and day 7, rats were warmed using a heating pad and lightly anesthetized using isoflurane (Butler Animal Health Services; Chicago, Ill.). Using a sterile scalpel blade, a small tail nick was made on the distal one third of the tail. Blood was collected in a heparinized microcapillary tube (FisherBrand; Pittsburg, Pa.), sealed with putty at one end and stored on ice until centrifugation (5000 rpm, 5 min). Plasma volume was determined using a Critocaps microhematocrit capillary tube reader card (Leica: Lot #7426). On day 7, rats,” for “On day 7, rats,”

[3] = one week, pioglitazone 20-25 mg/kg/day in diet

| Plasma expansion induced by pioglitazone (in words) [2, 3] | Structure (SMILES) | Body Weight (g) DAY 1 [1] | Body Weight (%) DELTA (percent weight gain) [1] | Body Weight (g) DELTA (weight gain) [1] | Body Weight (g) DAY 7 [1] | Body Weight (%) DAY 1 [1] | Body Weight (%) DAY 7 [1] | Plasma expansion versus vehicle treated rats (in words) [2] | Plasma Volume % DAY 1 [2] [%] | Plasma Volume % DELTA [2] [%] | Plasma Volume % DAY 7 [2] [%] | Increase in body weight induced by pioglitazone [1, 3] |
| --- | --- | --- | --- | --- | --- | --- | --- | --- | --- | --- | --- | --- |
| – | OC[C@H]1O[C@@H](c2ccc(Cl)c(Cc3ccc(OCCOC4CC4)cc3)c2)[C@H](O)[C@@H](O)[C@@H]1O [TEST COMPOUND, (2S,3R,4R,5S,6R)-2-(4-chloro-3-(4-(2-cyclopropoxyethoxy)benzyl)phenyl)-6-(hydroxymethyl)tetrahydro-2H-pyran-3,4,5-triol] | 371.7 ± 5.0 ^ g | 4.8% and 4.8 ± 1.3 % | 17.4 g and 17.5 ± 4.7 g | 389.2 ± 5.7 ^†† g | 100 ± 0 ^ % | 104.8 ± 1.3 ^†† % | significantly less plasma expansion than vehicle treated rats | 52.9 ± 0.5 | 1.8 ± 0.8 | 54.7 ± 0.6 | – |
| – | N=C(N)NC(=O)c1nc(Cl)c(N)nc1N [Amiloride, Amiloride HCl Hydrate] | 370.0 ± 6.0 g | 10.8 ± 0.7% | 40.0 ± 2.8 g | 410.0 ± 7.7 g | 100 ± 0% | 110.8 ± 0.7 % | significance for the observed trend toward reversal of PPAR-γ induced expansion was not achieved | 52.7 ± 0.9 | 3.9 ± 0.7 | 56.6 ± 0.4 | – |
| significant plasma expansion | CCc1ccc(CCOc2ccc(CC3SC(=O)NC3=O)cc2)nc1 (stereo not shown) [pioglitazone] | – | – | – | – | – | – | – | – | – | – | approximately 45 g |
